Results: patent US7884099B2 (priority 2007, dated 2011)
Values after ≈ are worked out from the molar mass of the structure shown. Where two headings read alike, the source gives them in different places.

Assays:
[1] = system: Staphylococcus aureus ATCC 29213; test: MIC by microbroth dilution, S. aureus ATCC 29213; type: cell-based
Procedure: (§1) Representative compounds are assayed for antimicrobial activity as follows: Minimum Inhibitory Concentrations (MICs) against Staphylococcus aureus ATCC 29213, its isogenic derivative, and Escherichia coli ATCC 25922 were determined by the microbroth dilution method, as per NCCLS guidelines (National Committee for Clinical Laboratory Standards 2000).

S. aureus rpoB^H481Y = test: MIC by microbroth dilution, rifamycin-resistant S. aureus rpoB H481Y; type: cell-based, Staphylococcus aureus; details: for MIC: Staphylococcus aureus, read-out: MIC S. aureus rpoB^H481Y
Procedure: as §1

[2] = system: S. aureus gyrA^S84L parC^S80F; test: MIC by microbroth dilution, quinolone-resistant S. aureus gyrA S84L parC S80F; type: cell-based, Staphylococcus aureus; details: for MIC: Staphylococcus aureus, read-out: MIC S. aureus gyrA^S84L parC^S80F
Procedure: as §1

[3] = system: S. aureus rpoB^H481Y gyrA^S84L parC^S80F; test: MIC by microbroth dilution, triple mutant S. aureus; type: cell-based; details: Staphylococcus aureus, read-out: MIC S. aureus rpoB^H481Y gyrA^S84L parC^S80F
Procedure: as §1

[4] = system: Escherichia coli ATCC 25922; test: MIC by microbroth dilution, E. coli ATCC 25922; type: cell-based
Procedure: as §1

[5] = system: Wild-type and Genetically-Defined Resistant Strains of Bacteria; test: Antibacterial activity against wild-type and genetically-defined resistant strains (overall statement on Table 1); type: cell-based; details: summary of Table 1
Procedure: as §1

[6] = ATCC29213, read-out: MIC S. aureus ATCC# 29213
[7] = ATCC25922, read-out: MIC E. coli ATCC# 25922
[8] = ATCC29213, wild-type, microbroth dilution, NCCLS, read-out: MIC S. aureus ATCC# 29213
[9] = ATCC25922, microbroth dilution, NCCLS, read-out: MIC E. coli ATCC# 25922

Structure (SMILES) | MIC [1, 6] [µg/mL] | MIC (S. aureus rpoB^H481Y) [µg/mL] | MIC [2] [µg/mL] | MIC [3] [µg/mL] | MIC [4, 7] [µg/mL] | antibacterial activity (in words) [5] | MIC [1, 8] [µg/mL] | activity against quinolone-resistant S. aureus gyrA^S84L parC^S80F (in words) ([2]; mutations in gyrase and topoisomerase IV) | MIC [4, 9] [µg/mL] | activity against rifamycin-resistant S. aureus rpoB^H481Y (in words) (S. aureus rpoB^H481Y; mutation in RNA polymerase)
CO[C@H]1/C=C/O[C@@]2(C)Oc3c(C)c(O)c4c(=O)c(c5oc6cc(N7CCC(N(C)C8([C@@H]9CCN(c%10c(F)cn%11c(=O)c(C(=O)O)cc(C%12CC%12)c%11c%10C)C9)CC8)CC7)cc(O)c6nc-5c4c3C2=O)NC(=O)/C(C)=C\C=C\[C@H](C)[C@H](O)[C@@H](C)[C@@H](O)[C@@H](C)[C@H](OC(C)=O)[C@@H]1C [Example 1] | < 0.004 | 0.12 (≈ 0.0936 µM) | < 0.004 | 2 (≈ 1.56 µM) | 0.5 (≈ 0.39 µM) | – | – | – | – | –
COc1c(N2CC[C@@H](C3(N(C)C4CCN(c5cc(O)c6nc7c8c9c%10c(C)c(O)c8c(=O)c(c-7oc6c5)NC(=O)/C(C)=C\C=C\[C@H](C)[C@H](O)[C@@H](C)[C@@H](O)[C@@H](C)[C@H](OC(C)=O)[C@H](C)[C@@H](OC)/C=C/O[C@@](C)(O%10)C9=O)CC4)CC3)C2)c(F)cc2c(=O)c(C(=O)O)cn(C3CC3)c12 [Example 2, (R)-5′-[4-[1-[1-(3-Carboxy-1-cyclopropyl-6-fluoro-8-methoxy-4-oxo-1,4-dihydro-quinoline-7-yl)-pyrrolidin-3-yl-cyclopropyl-methyl]-amino]-piperidin-1-yl]-3′-hydroxy-benzoxazinorifamycin] | 0.008 (≈ 0.00617 µM) | 0.5 (≈ 0.385 µM) | 0.016 (≈ 0.0123 µM) | 4 (≈ 3.08 µM) | 4 (≈ 3.08 µM) | potent antibacterial activity | – | – | – | –
COc1c(N2CCN(c3cc(O)c4nc5c6c7c8c(C)c(O)c6c(=O)c(c-5oc4c3)NC(=O)/C(C)=C\C=C\[C@H](C)[C@H](O)[C@@H](C)[C@@H](O)[C@@H](C)[C@H](OC(C)=O)[C@H](C)[C@@H](OC)/C=C/O[C@@](C)(O8)C7=O)CC2)c(F)cc2c(=O)c(C(=O)O)cn(C3CC3)c12 [Example 3, 5′-[4-(3-Carboxy-1-cyclopropyl-6-fluoro-8-methoxy-4-oxo-1,4-dihydroquinolin-7-yl)-piperazin-1-yl]-3′-hydroxy-benzoxazinorifamycin] | 0.008 (≈ 0.0069 µM) | 0.24 (≈ 0.207 µM) | 0.008 (≈ 0.0069 µM) | 8 (≈ 6.9 µM) | 4 (≈ 3.45 µM) | potent antibacterial activity | – | – | – | –
O=C(O)c1cn(C2CC2)c2cc(N3CCNCC3)c(F)cc2c1=O [ciprofloxacin, reference compound] | – | 0.24 (≈ 0.724 µM) | > 32 | > 32 | – | – | 0.24 (≈ 0.724 µM) | not as effective | 0.008 (≈ 0.0241 µM) | –
CO[C@H]1/C=C/O[C@@]2(C)Oc3c(C)c(O)c4c(O)c(c(/C=N/N5CCN(C)CC5)c(O)c4c3C2=O)NC(=O)/C(C)=C\C=C\[C@H](C)[C@H](O)[C@@H](C)[C@@H](O)[C@@H](C)[C@H](OC(C)=O)[C@@H]1C [rifampin, reference compound] | – | > 64 | 0.008 (≈ 0.00972 µM) | > 64 | – | – | 0.008 (≈ 0.00972 µM) | – | 8 (≈ 9.72 µM) | not as effective
